The structures appear in SMILES notation. Where two headings read alike, the source gives them in different places. A value given as a limit tells only on which side of the number the result lay.

Results on three compounds are retold here after patent US9505725B2, “Crystalline and mesomorphous forms of an AKT inhibiting pyrimidinyl-cyclopentane compound, compositions and methods thereof” (priority 2012, dated 2016).

Data set [1] can be described thus: Solubility in solvents, antisolvents and liquid fill solvents. In kind it is physicochemical. To be noted: organic solvent or mixture.
Excerpt: In one example, antisolvents include pentane, hexane, cyclohexane, heptane, ethyl acetate, iso-propyl acetate, methyl t-butyl ether (MTBE) and methyl iso-butyl ketone.
In one example, solvents include water, alcohols such as methanol, ethanol, isopropanol, 2-butanol, t-butanol and 2-methoxy ethanol, polar ethers such as tetrahydrofuran and 2-methyltetrahydrofuran, toluene, chloroform, dichloromethane, 1,2-dichloroethane and acetone.
A short description of data set [2]: Hygroscopicity / water sorption analysis. In kind it is physicochemical. To be noted: continuous water sorption profile at 25° C. from 0-90% RH.
A short description of data set [3]: Variable temperature XRPD (thermal stability of the solid form). The data set is classed as physicochemical. To be noted: heating, XRPD as a function of temperature. As to the method:
Heating the product of Example 1 leads to loss in structure (diffracted peaks start to disappear in the 100-160° C. range) and the solid-state form becomes amorphous.
At temperatures ≧80° C., there is substantial loss of crystallinity. In both samples, they appear to be X-ray amorphous at 90° C. and above (due to melting of the lattice solvent and dissolution of the solid phase in it as confirmed by hot stage microscopy).

Data set [4] is described as follows: XRPD after exposure to water vapor (relative humidity). To be noted: room temperature, different RH conditions, 5-7 days. The data set is classed as physicochemical.
Data set [5] is described as follows: Critical micelle concentration in propylene glycol caprylate (Capryol 90). The data set is classed as physicochemical. To be noted: in propylene glycol caprylate (e.g., Capryol 90). As to the method: Such high doses are generally unachievable with active pharmaceutical ingredients in the lipid like liquid fill solvent systems. […] The critical micelle concentration for GDC-0068 in propylene glycol caprylate (e.g., Capryol 90™) was determined to be 0.945 g/g.

For data set [6] the following is noted: forms isolated in Example 14 of U.S. Pat. No. 8,063,050; cited from earlier work.

For orientation: solubility means how much of the substance goes into solution per volume. `CC(C)NC[C@@H](C(=O)N1CCN(c2ncnc3c2[C@H](C)C[C@H]3O)CC1)c1ccc(Cl)cc1.Cl` [compound of formula I, (S)-2-(4-chlorophenyl)-1-(4-((5R,7R)-7-hydroxy-5-methyl-6,7-dihydro-5H-cyclopenta[d]pyrimidin-4-yl)piperazin-1-yl)-3-(isopropylamino)propan-1-one monohydrochloride]: the solubility in data set [1] (antisolvents (organic liquids), pentane, hexane, cyclohexane, heptane, ethyl acetate, iso-propyl acetate, MTBE, methyl iso-butyl ketone, read-out: solubility in antisolvents) was less than 20 mg/mL; in data set [1] (solvents (water and organic liquids), water, methanol, ethanol, isopropanol, 2-butanol, t-butanol, 2-methoxy ethanol, THF, 2-methyltetrahydrofuran, toluene, chloroform, dichloromethane, 1,2-dichloroethane, acetone, read-out: solubility in solvents), more than 20 mg/mL.
As for `CC(C)NC[C@@H](C(=O)N1CCN(c2ncnc3c2[C@H](C)C[C@H]3O)CC1)c1ccc(Cl)cc1.Cl` [Example 1, (S)-2-(4-chlorophenyl)-1-(4-((5R,7R)-7-hydroxy-5-methyl-6,7-dihydro-5H-cyclopenta[d]pyrimidin-4-yl)piperazin-1-yl)-3-(isopropylamino)propan-1-one monohydrochloride], in data set [2], the deliquescence point is approximately 75 % RH. Also, the “temperature range in which diffracted peaks start to disappear (loss in structure, becomes amorphous)” value in data set [3] was 100-160 °C. In addition, the “effect of water vapor exposure on crystallinity” value in data set [4] was “loses crystallinity”.
`CC(C)NC[C@@H](C(=O)N1CCN(c2ncnc3c2[C@H](C)C[C@H]3O)CC1)c1ccc(Cl)cc1` [GDC-0068, (S)-2-(4-chlorophenyl)-1-(4-((5R,7R)-7-hydroxy-5-methyl-6,7-dihydro-5H-cyclopenta[d]pyrimidin-4-yl)piperazin-1-yl)-3-(isopropylamino)propan-1-one]: the critical micelle concentration in data set [5] is given as 0.945 g/g. Besides, the hygroscopicity result in data set [6] is recorded as “hygroscopic”.
